Data published in ChEMBL document CHEMBL1201862, “PubChem BioAssay data set” (2004).
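Briefly, cells in 96-well plates were exposed to five compound concentrations for 48 h, and endpoints were estimated by linear interpolation. GI50: concentration for 50% inhibition of growth.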 Activity calls are given as the source filed them. Rule as the data show it: active = GI50 up to about 1.1 µM and inactive = higher.

Experiments:
Experiment in all cases: DTP human tumour cell line panel, 48 h
[1] = tested on: SN12C
[2] = tested on: T47D
[3] = tested on: HCT-116
[4] = tested on: U-251
[5] = tested on: SF-295
[6] = tested on: SK-OV-3
[7] = tested on: MDA-MB-435
[8] = tested on: SK-MEL-28
[9] = tested on: MDA-N
[10] = tested on: NCI-H460
[11] = tested on: SW-620
[12] = tested on: OVCAR-4
[13] = tested on: MOLT-4
[14] = tested on: LOX IMVI
[15] = tested on: HCC 2998
[16] = tested on: NCI-H23
[17] = tested on: M14
[18] = tested on: CAKI-1
[19] = tested on: SF-539

| SMILES | GI50 [1] | GI50 [2] | GI50 [3] | GI50 [4] | GI50 [5] | GI50 [6] | GI50 [7] | GI50 [8] | GI50 [9] | GI50 [10] | GI50 [11] | GI50 [12] | GI50 [13] | GI50 [14] | GI50 [15] | GI50 [16] | GI50 [17] | GI50 [18] | GI50 [19] |
| --- | --- | --- | --- | --- | --- | --- | --- | --- | --- | --- | --- | --- | --- | --- | --- | --- | --- | --- | --- |
| Cc1ccc(-c2cc(-c3c(C)nn(C)c(=O)c3N)n[nH]2)cc1 | > 100 µM (inactive) | 53.5 µM (inactive) | > 100 µM (inactive) | > 100 µM (inactive) | > 100 µM (inactive) | > 100 µM (inactive) | > 100 µM (inactive) | > 100 µM (inactive) | > 100 µM (inactive) | > 100 µM (inactive) | > 100 µM (inactive) | > 100 µM (inactive) | > 100 µM (inactive) | > 100 µM (inactive) | > 100 µM (inactive) | > 100 µM (inactive) | > 100 µM (inactive) | > 100 µM (inactive) | > 100 µM (inactive) |
| N=C(N)NC(=N)Nc1ccccc1.Sc1nc2ccccc2s1 | > 100 µM (inactive) | 24.2 µM (inactive) | > 100 µM (inactive) | > 100 µM (inactive) | > 100 µM (inactive) | > 100 µM (inactive) | > 100 µM (inactive) | > 100 µM (inactive) | > 100 µM (inactive) | > 100 µM (inactive) | > 100 µM (inactive) | > 100 µM (inactive) | – | > 100 µM (inactive) | > 100 µM (inactive) | > 100 µM (inactive) | > 100 µM (inactive) | > 100 µM (inactive) | > 100 µM (inactive) |
| O=C1NC2c3c(I)sc(I)c3/C(=N\O)C2O1 (stereo not given) | 30.8 µM (inactive) | 35.2 µM (inactive) | 25.1 µM (inactive) | 23.1 µM (inactive) | 45.6 µM (inactive) | 34.5 µM (inactive) | 26.5 µM (inactive) | 41.8 µM (inactive) | 33.6 µM (inactive) | 31.5 µM (inactive) | 19 µM (inactive) | 26.1 µM (inactive) | 28.2 µM (inactive) | 29.4 µM (inactive) | 35.1 µM (inactive) | 23.2 µM (inactive) | 36.8 µM (inactive) | 32.7 µM (inactive) | 14.2 µM (inactive) |
| OCCOc1ccccc2cccc1-2 | > 100 µM (inactive) | 47.1 µM (inactive) | > 100 µM (inactive) | > 100 µM (inactive) | > 100 µM (inactive) | > 100 µM (inactive) | > 100 µM (inactive) | > 100 µM (inactive) | > 100 µM (inactive) | 73.6 µM (inactive) | > 100 µM (inactive) | 34 µM (inactive) | – | > 100 µM (inactive) | > 100 µM (inactive) | > 100 µM (inactive) | > 100 µM (inactive) | > 100 µM (inactive) | > 100 µM (inactive) |
| CN1c2ccccc2C2c3c(O)ccc(O)c3C=C([N+](=O)[O-])C21 (stereo not given) | 0.312 µM (active) | 0.324 µM (active) | 0.205 µM (active) | 0.65 µM (active) | 2.53 µM (inactive) | 3.72 µM (inactive) | 0.199 µM (active) | 2.03 µM (inactive) | 0.69 µM (active) | 1.9 µM (inactive) | 0.406 µM (active) | 1.21 µM (inactive) | 0.424 µM (active) | 0.407 µM (active) | 0.716 µM (active) | 1.69 µM (inactive) | 0.513 µM (active) | 2.13 µM (inactive) | 1.44 µM (inactive) |
| CCN(CC)c1nc(N(C)C)c2ccc(OC)cc2n1 | 15 µM (inactive) | 17.2 µM (inactive) | 4.35 µM (inactive) | 20.2 µM (inactive) | 17.2 µM (inactive) | 13.7 µM (inactive) | 10.5 µM (inactive) | 12.5 µM (inactive) | 8.49 µM (inactive) | 10.3 µM (inactive) | 7.08 µM (inactive) | 25.8 µM (inactive) | 3.49 µM (inactive) | 17.1 µM (inactive) | 11.6 µM (inactive) | 15.1 µM (inactive) | 8.75 µM (inactive) | 22.9 µM (inactive) | 16.7 µM (inactive) |
| Cn1c(=O)c2c(nc3n(CCCCl)c(=O)ccn23)n(C)c1=O | > 100 µM (inactive) | > 100 µM (inactive) | > 100 µM (inactive) | > 100 µM (inactive) | > 100 µM (inactive) | > 100 µM (inactive) | > 100 µM (inactive) | > 100 µM (inactive) | > 100 µM (inactive) | > 100 µM (inactive) | > 100 µM (inactive) | > 100 µM (inactive) | > 100 µM (inactive) | > 100 µM (inactive) | > 100 µM (inactive) | > 100 µM (inactive) | > 100 µM (inactive) | > 100 µM (inactive) | > 100 µM (inactive) |
| OC(C1CCC=NN1C(O)(C(F)(F)F)C(F)(F)F)(C(F)(F)F)C(F)(F)F (stereo not given) | > 10 µM (inactive) | > 10 µM (inactive) | > 10 µM (inactive) | > 10 µM (inactive) | > 10 µM (inactive) | > 10 µM (inactive) | > 10 µM (inactive) | > 10 µM (inactive) | > 10 µM (inactive) | > 10 µM (inactive) | – | > 10 µM (inactive) | > 10 µM (inactive) | > 10 µM (inactive) | > 10 µM (inactive) | > 10 µM (inactive) | > 10 µM (inactive) | > 10 µM (inactive) | > 10 µM (inactive) |
| O=C1C(Cl)=C(N2CCOCC2)C(=O)c2c(O)ccc(O)c21 | 0.207 µM (active) | 0.839 µM (active) | 0.213 µM (active) | 0.925 µM (active) | 1.64 µM (inactive) | 2.81 µM (inactive) | 0.204 µM (active) | 0.288 µM (active) | 0.176 µM (active) | 0.881 µM (active) | 0.156 µM (active) | 0.256 µM (active) | 1.35 µM (inactive) | 0.186 µM (active) | 1.67 µM (inactive) | 0.255 µM (active) | 0.182 µM (active) | 0.433 µM (active) | 0.486 µM (active) |
| CC(=O)O[C@H]1CC[C@H]2[C@@H]3CCC4C(C)=NNC(=O)C4[C@H]3CC[C@]12C (stereo not given in full) | 95.5 µM (inactive) | > 100 µM (inactive) | > 73.5 µM (inactive) | 36.5 µM (inactive) | 41.5 µM (inactive) | > 95.1 µM (inactive) | > 100 µM (inactive) | > 100 µM (inactive) | > 100 µM (inactive) | > 100 µM (inactive) | > 100 µM (inactive) | > 100 µM (inactive) | > 100 µM (inactive) | > 38.6 µM (inactive) | > 100 µM (inactive) | > 60.7 µM (inactive) | > 100 µM (inactive) | > 90.2 µM (inactive) | 65.9 µM (inactive) |
| c1ccc2c(c1)SCCC2NC1=NCCO1 (stereo not given) | > 100 µM (inactive) | > 100 µM (inactive) | > 100 µM (inactive) | > 100 µM (inactive) | > 100 µM (inactive) | > 100 µM (inactive) | > 100 µM (inactive) | > 100 µM (inactive) | > 100 µM (inactive) | > 100 µM (inactive) | > 100 µM (inactive) | > 100 µM (inactive) | > 100 µM (inactive) | > 100 µM (inactive) | > 100 µM (inactive) | > 100 µM (inactive) | > 100 µM (inactive) | > 100 µM (inactive) | > 100 µM (inactive) |
| O=C1OC(c2ccccc2)=NC1c1ccccc1 (stereo not given) | > 100 µM (inactive) | > 100 µM (inactive) | > 100 µM (inactive) | > 100 µM (inactive) | > 100 µM (inactive) | > 100 µM (inactive) | > 100 µM (inactive) | > 100 µM (inactive) | > 100 µM (inactive) | > 100 µM (inactive) | > 100 µM (inactive) | > 100 µM (inactive) | > 100 µM (inactive) | > 100 µM (inactive) | > 100 µM (inactive) | > 100 µM (inactive) | > 100 µM (inactive) | > 100 µM (inactive) | > 100 µM (inactive) |
| COc1ccc2c(c1)[nH]c1c(/C=C/c3ccccc3)nccc12 | 14.2 µM (inactive) | 23.5 µM (inactive) | 12.1 µM (inactive) | 14.1 µM (inactive) | 8.81 µM (inactive) | 13.8 µM (inactive) | 16.2 µM (inactive) | 14.9 µM (inactive) | 16.2 µM (inactive) | 13.2 µM (inactive) | 15.9 µM (inactive) | 19.6 µM (inactive) | 7.55 µM (inactive) | 18.7 µM (inactive) | 13 µM (inactive) | 15.3 µM (inactive) | 15.9 µM (inactive) | 14.5 µM (inactive) | 13 µM (inactive) |
| O=C(CCc1cc(O)cc(O)c1)NCCc1cc(O)cc(O)c1 | > 100 µM (inactive) | > 100 µM (inactive) | > 100 µM (inactive) | > 100 µM (inactive) | > 100 µM (inactive) | > 100 µM (inactive) | > 100 µM (inactive) | > 100 µM (inactive) | > 100 µM (inactive) | > 100 µM (inactive) | > 100 µM (inactive) | – | > 100 µM (inactive) | > 100 µM (inactive) | > 100 µM (inactive) | > 100 µM (inactive) | > 100 µM (inactive) | > 100 µM (inactive) | > 100 µM (inactive) |
| CCOC(=O)Nc1cc2c(c(N)n1)N=C(c1ccc(Cl)cc1Cl)CN2 | 0.0805 µM (active) | 15.6 µM (inactive) | < 0.01 µM (active) | < 0.019 µM (active) | 0.0112 µM (active) | 0.509 µM (active) | < 0.01 µM (active) | – | < 0.01 µM (active) | < 0.0154 µM (active) | < 0.0194 µM (active) | 14.3 µM (inactive) | < 0.0228 µM (active) | < 0.0195 µM (active) | 0.0995 µM (active) | 0.0834 µM (active) | 0.0766 µM (active) | 0.0383 µM (active) | < 0.0173 µM (active) |
